The record followed here is patent publication US7220824B1, “Integrin-mediated drug targeting” (Bayer Aktiengesellschaft, priority 2000, dated 2007).

The target in experiment [1] is T1, αvβ3 receptor (αvβ3 from human A375 cells) (Homo sapiens, UniProt P05106+P06756).
T1 construct: αvβ3 from human A375 cells was purified analogously to a procedure which was described by Wong et al; endogenous in cells; host or cells: human A375 cells; the receptor was purified from the cells and used detergent-solubilised (n-octyl-glucopyranoside)
T1 sequence (P06756 31-889 limits assumed): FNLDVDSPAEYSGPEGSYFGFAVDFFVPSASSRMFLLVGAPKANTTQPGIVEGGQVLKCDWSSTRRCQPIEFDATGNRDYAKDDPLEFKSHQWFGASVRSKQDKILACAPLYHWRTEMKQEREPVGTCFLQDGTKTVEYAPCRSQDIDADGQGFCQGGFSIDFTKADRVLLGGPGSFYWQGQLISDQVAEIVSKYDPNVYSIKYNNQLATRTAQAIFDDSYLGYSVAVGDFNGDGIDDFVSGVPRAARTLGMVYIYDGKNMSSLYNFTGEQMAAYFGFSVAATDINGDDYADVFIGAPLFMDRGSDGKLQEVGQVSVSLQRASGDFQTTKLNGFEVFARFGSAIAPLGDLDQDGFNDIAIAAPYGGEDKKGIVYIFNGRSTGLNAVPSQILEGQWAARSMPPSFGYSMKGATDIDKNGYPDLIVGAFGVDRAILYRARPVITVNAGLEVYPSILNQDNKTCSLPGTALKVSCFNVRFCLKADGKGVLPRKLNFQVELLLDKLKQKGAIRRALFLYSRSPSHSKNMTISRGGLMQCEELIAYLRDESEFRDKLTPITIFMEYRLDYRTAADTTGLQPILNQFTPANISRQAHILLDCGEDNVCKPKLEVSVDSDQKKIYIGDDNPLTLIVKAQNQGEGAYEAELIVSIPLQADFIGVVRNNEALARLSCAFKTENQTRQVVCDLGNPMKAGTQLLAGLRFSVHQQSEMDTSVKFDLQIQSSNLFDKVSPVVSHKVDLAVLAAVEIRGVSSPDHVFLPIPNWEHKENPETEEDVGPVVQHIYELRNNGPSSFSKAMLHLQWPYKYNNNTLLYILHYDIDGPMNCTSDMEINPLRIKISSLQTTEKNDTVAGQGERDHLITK
T1 sequence (P06756 891-1048 partner limits assumed): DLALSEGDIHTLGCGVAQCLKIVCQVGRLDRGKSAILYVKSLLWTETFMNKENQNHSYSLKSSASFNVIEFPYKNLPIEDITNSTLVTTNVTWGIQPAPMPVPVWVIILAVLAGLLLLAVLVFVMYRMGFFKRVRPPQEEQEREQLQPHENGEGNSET
T1 sequence (P05106 27-788): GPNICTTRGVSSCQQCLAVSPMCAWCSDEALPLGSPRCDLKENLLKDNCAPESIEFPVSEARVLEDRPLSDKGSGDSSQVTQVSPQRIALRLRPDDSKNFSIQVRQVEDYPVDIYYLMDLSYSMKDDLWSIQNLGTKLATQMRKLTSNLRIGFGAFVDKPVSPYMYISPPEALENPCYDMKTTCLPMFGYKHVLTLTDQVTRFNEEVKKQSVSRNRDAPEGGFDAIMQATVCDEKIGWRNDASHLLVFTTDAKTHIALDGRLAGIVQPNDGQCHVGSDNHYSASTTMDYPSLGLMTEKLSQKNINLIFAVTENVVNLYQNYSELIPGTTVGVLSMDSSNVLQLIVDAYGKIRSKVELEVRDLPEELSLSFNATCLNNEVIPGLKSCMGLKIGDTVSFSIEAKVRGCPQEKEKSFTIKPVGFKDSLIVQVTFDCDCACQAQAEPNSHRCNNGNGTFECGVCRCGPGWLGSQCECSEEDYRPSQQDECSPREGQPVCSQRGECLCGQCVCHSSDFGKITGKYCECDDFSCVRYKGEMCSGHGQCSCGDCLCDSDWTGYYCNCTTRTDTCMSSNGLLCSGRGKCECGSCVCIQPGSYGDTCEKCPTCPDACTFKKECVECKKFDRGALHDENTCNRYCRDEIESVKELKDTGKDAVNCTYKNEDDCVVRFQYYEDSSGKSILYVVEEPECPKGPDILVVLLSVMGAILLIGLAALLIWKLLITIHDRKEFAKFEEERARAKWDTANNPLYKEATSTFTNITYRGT
In words: αvβ3 binding test (echistatin displacement, WGA SPA beads). Put shortly: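 αvβ3 purified from human A375 cells (5 ng) was preincubated 1 h at room temperature with test substance in TBS pH 7.6 containing CaCl2, MgCl2, MnCl2 and n-octyl-glucopyranoside. WGA SPA beads and chloramine-T-labelled echistatin were then added. After 16 h at room temperature, bound tracer was measured by scintillation counting.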

Experiment [2] has as its system hemopoietic stem cells (bone marrow cells). Put plainly: CSF-induced proliferation of hemopoietic stem cells. It is filed as cell-based, mice. The conditions noted are these: Mus musculus, Bone marrow cell, 168 h, read-out: IC50, CSF-induced proliferation of hemopoietic stem cells, mouse bone marrow cells, recombinant murine GM-CSF, 7 days, colony count. As to the method:
Bone marrow cells are flushed out of the femur of mice. 10^5 cells are incubated in McCoy 5A medium (0.3% agar) together with recombinant murine GM-CSF (Genzyme; parent cell colony formation) and the substances (10^−4 to 100 μg/ml) at 37° C. and 7% CO2. 7 days later, the colonies (<50 cells) and clusters (17–50 cells) are counted.

A further experiment relates to B16F10. In words: Growth inhibition test (MTT), cytotoxic action on tumour cell lines. The class given is cell-based. The following applies: Mus musculus, B16-F10, 144 h, read-out: IC50 values of the cytotoxic action on tumour cell lines, B16F10.
A further experiment has as its system MCF7. The experiment is described as above. The conditions noted are these: Homo sapiens, MCF7, 144 h, read-out: IC50 values of the cytotoxic action on tumour cell lines, MCF7. It is filed as cell-based. The method in brief: (§1)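 SW480, HT29, BT20 and MCF7 cells were seeded at 50,000 cells/ml in RPMI 1640 + 10% FCS, grown 1 day at 37 °C, then exposed to compounds (with DMSO) until day 6. Growth read by MTT (5 h, 37 °C), i-propanol solubilisation, A595; IC50 reported per line.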

For the next experiment, the system named is BT20. The experiment is described as above. It is filed as cell-based. The following applies: Homo sapiens, BT-20, 144 h, read-out: IC50 values of the cytotoxic action on tumour cell lines, BT20. Put shortly:
as §1

The next experiment deals with MDA-MB 231. Described as above. The following applies: Homo sapiens, MDA-MB-231, 144 h, read-out: IC50 values of the cytotoxic action on tumour cell lines, MDA-MB 231. The class given is cell-based.
Another experiment concerns SW480. The description is as above. It is filed as cell-based. The following applies: Homo sapiens, SW480, 144 h, read-out: IC50 values of the cytotoxic action on tumour cell lines, SW480. The method in brief: as §1
Another experiment has as its system HT 29. Described as above. It is filed as cell-based. The conditions noted are these: Homo sapiens, HT-29, 144 h, read-out: IC50 values of the cytotoxic action on tumour cell lines, HT 29. The method in brief: as §1
Experiment [3] deals with human breast cancer xenograft MX1. Put plainly: In-vivo inhibition of tumour growth using a nude mouse model. The conditions noted are these: subcutaneous MX1 xenograft in nude mice; 40 mg/kg given on day 1–3 and 14–16; T/C in percent. The arrangement: species or system athymic nude mice (NMRI nu/nu strain). An excerpt:
In all in-vivo experiments for investigating the inhibition of tumour growth, athymic nude mice (NMRI nu/nu strain) were used. The tumour was developed by serial passage in nude mice. The human origin of the tumour was confirmed by isoenzymatic and immunohistochemical methods.
The tumour was implanted subcutaneously in both flanks of nu/nu nude mice 6 to 8 weeks old. The treatment was started, depending on the doubling time, as soon as the tumours had reached a diameter of 5–7 mm. The mice were assigned to the treatment group or the control group (5 mice per group having 8–10 assessable tumours) by randomization. The individual tumours of the control group all grew progressively.
The size of the tumours was measured in two dimensions by means of a slide gauge. The tumour volume, which correlated well with the cell count, was then used for all assessments. The volume was calculated according to the formula “length×breadth×breadth/2” ([a×b^2]/2, a and b represent two diameters arranged at right angles).
The values of the relative tumour volume (RTV) were calculated for each individual tumour by dividing the tumour size on day X with the tumour size on day 0 (at the time of randomization). […]
The inhibition of the increase of the tumour volume (tumour volume of the test group/control group, T/C, in percent) was the final measured value. […]

For `CC[C@@]1(OC(=O)[C@@H](NC(=O)[C@H](Cc2c[nH]cn2)NC(=S)Nc2ccc(NC(=O)NC(CC(=O)O)c3cccc(NS(=O)(=O)c4cccc(NC(=N)N)c4)c3)cc2)C(C)C)C(=O)OCc2c1cc1n(c2=O)Cc2cc3ccccc3nc2-1` (stereo partly shown) [Example 3.5], the IC50 in [1] turned out to be 0.036 µM; in experiment [2], 0.02 µg/mL; in the experiment on B16F10, 0.9 µM; in the experiment with MCF7, 0.15 µM; in the experiment on BT20, 0.5 µM; in the experiment on MDA-MB 231 it was 0.15 µM. Moreover, the values for the IC50 in the experiment with SW480 and with HT 29 were 0.2 µM and 0.15 µM, respectively.
Take `CC[C@@]1(OC(=O)[C@@H](NC(=O)[C@H](Cc2cnc[nH]2)NC(=S)Nc2cccc(C(CC(=O)O)NS(=O)(=O)c3ccc(-c4cccc(NC(=O)Nc5nc6ccccc6[nH]5)c4)cc3)c2)C(C)C)C(=O)OCc2c1cc1n(c2=O)Cc2cc3ccccc3nc2-1` (stereo partly shown) [Example 3.8]: the “optimal T/C (tumour volume of the test group/control group)” value in [3] was determined as 15.9. Also, the IC50 in experiment [1] came to 0.025 µM; in experiment [2], 0.025 µg/mL; with B16F10, 0.8 µM; with MCF7, 0.2 µM; in the experiment on BT20 it was 0.4 µM; with MDA-MB 231 it was 0.2 µM. For the same compound, the IC50 in the experiment on SW480 came out at 0.35 µM; with HT 29, 0.2 µM.
`CCCNC(=O)Nc1cccc(S(=O)(=O)Nc2cccc(C(CC(=O)O)NC(=O)Nc3ccc(NC(=S)N[C@@H](Cc4c[nH]cn4)C(=O)N[C@H](C(=O)O[C@]4(CC)C(=O)OCc5c4cc4n(c5=O)Cc5cc6ccccc6nc5-4)C(C)C)cc3)c2)c1` (stereo partly shown) [Example 3.13]: the IC50 was 0.014 µM in experiment [1]; 0.04 µg/mL in experiment [2]; 0.2 µM in the experiment with B16F10; 0.1 µM with MCF7; 0.15 µM in the experiment on BT20; 0.2 µM in the experiment with MDA-MB 231. The values for the IC50 in the experiment with SW480 and in the experiment on HT 29 were 0.2 µM and 0.09 µM, respectively.
